Structures can show the parent of a compound that is named as a salt.

The target of the assay is human KV7.2/KV7.3 (Homo sapiens (Human), UniProt O43525+O43526). The assay is described as follows: Potassium flux assay (IPG-2 AM dye). The settings on record: TREX HEK 293 or HEK 293 cells expressing human KV7.2/KV7.3; arithmetic mean values. In kind it is cell-based. The text has this:
This potassium flux assay employs the cell-permeable, potassium-sensitive dye, IPG-2 AM, to quantify potassium ion flux through potassium channels.
In general, TREX HEK 293 or HEK 293 cells were stably transfected with either an inducible or non-inducible expression vector containing the full-length cDNA coding for the desired human KV7.2/KV7.3 or in combination with another full-length cDNA for a second desired human KV7 potassium channel. Potassium channel-expressing cell lines were induced with tetracycline (1 μg/mL), if required, and plated on 384-well poly-D-lysine (PDL)-coated plates in culture media (DMEM, containing 10% FBS and 1% L-glutamine). After overnight incubation, culture media was removed and cells were loaded with 5 μM IPG-2 AM dye for 1 hour in Assay buffer (140 mM NaCl, 20 mM RbCl, 2 mM CaCl2, 1 mM MgCl2, 10 mM HEPES (4-(2-hydroxyethyl)-1-piperazineethanesulfonic acid buffer), 10 mM glucose, adjusted with Tris to pH 7.4). Excess dye was removed, and cells incubated at room temperature for 20 minutes with or without test compound. A Hamamatsu FDSS μCell was used to perform a 1:1 addition of K challenge buffer (150 mM NaCl, 10 mM HEPES, 2 mM CaCl2, 10 mM KCl, 1 mM MgCl2, 10 mM glucose, adjusted with Tris to pH 7.4 for human KV7.2/KV7.3, and simultaneously read plates at excitation wavelength of 530 nm and emission wavelength of 558 nm. Non-potassium channel-mediated potassium influx was determined in the presence of DMSO, and maximal influx was determined in the presence of a known KV7.x channel modulator. For each test compound, a concentration response curve was generated with 16 concentrations points, 2-fold serial dilution starting at 30 μM and an EC50 value was determined.
By EC50 is commonly meant the concentration giving half of the maximal effect. Regarding `FC(F)C1(COc2ccc3c(Nc4ccc(Cl)nc4)nccc3c2)CC1` [Example 326, N-(6-chloropyridin-3-yl)-6-((1-(difluoromethyl)cyclopropyl)methoxy)isoquinolin-1-amine], the EC50 is below 1 µM.

Regarding `N#CC1(COc2ccc3c(Nc4ccc(Cl)nc4)nccc3c2)CCOC1` (racemic) [Example 124, 3-(((1-((6-chloropyridin-3-yl)amino)isoquinolin-6-yl)oxy)methyl)tetrahydrofuran-3-carbonitrile], the EC50 was below 1 µM.

As to `Clc1ccc(Nc2nccc3occc23)cn1` [Example 30, N-(6-chloropyridin-3-yl)furo[3,2-c]pyridin-4-amine formate], the concentration for a half-maximal effect (EC50) is 1 to 10 µM.

Take `CS(=O)(=O)N1CCC(Oc2ccc3c(Nc4ccc(Cl)nc4)nccc3c2)CC1` [Example 118, N-(6-chloropyridin-3-yl)-6-((1-(methylsulfonyl)piperidin-4-yl)oxy)isoquinolin-1-amine]: the concentration giving a half-maximal response (EC50) was 1 to 10 µM.

For the compound `OC1CC2(C1)CC(Oc1ccc3c(Nc4ccc(Cl)nc4)nccc3c1)C2` (centres unmarked) [Example 153, 6-((1-((6-chloropyridin-3-yl)amino)isoquinolin-6-yl)oxy)spiro[3.3]heptan-2-ol], the EC50 is below 1 µM.

On to `Cc1cc(COc2ccc3c(Nc4ccc(Cl)nc4)nccc3c2)n[nH]1` [Example 392, N-(6-chloropyridin-3-yl)-6-((5-methyl-1H-pyrazol-3-yl)methoxy)isoquinolin-1-amine], for which the EC50 was in the range of 1 to 10 µM.

As for `FC1CN(CCOc2ccc3c(Nc4ccc(Cl)nc4)nccc3c2)C1` [Example 116, N-(6-chloropyridin-3-yl)-6-(2-(3-fluoroazetidin-1-yl)ethoxy)isoquinolin-1-amine], the EC50 fell in the range of 1 to 10 µM.

Take `Clc1ccc(Nc2nccc3cc(OCc4ccon4)ccc23)cn1` [Example 215, N-(6-chloropyridin-3-yl)-6-(isoxazol-3-ylmethoxy)isoquinolin-1-amine]: the EC50 is below 1 µM.

Turning to `O=S1(=O)CC(COc2ccc3c(Nc4ccc(Cl)nc4)nccc3c2)C1` [Example 300, 3-(((1-((6-chloropyridin-3-yl)amino)isoquinolin-6-yl)oxy)methyl)thietane 1,1-dioxide], the EC50 was below 1 µM.

For the compound `CC(Oc1ccc2c(Nc3ccc(Cl)nc3)nccc2c1)C1(F)CC1` (centres unmarked) [Example 91, N-(6-chloropyridin-3-yl)-6-(1-(1-fluorocyclopropyl)ethoxy)isoquinolin-1-amine], the EC50 is below 1 µM.

`Clc1ccc(Nc2nccc3cc(OC4CCOC4)ccc23)cn1` (centres unmarked) [Example 263, N-(6-chloropyridin-3-yl)-6-((tetrahydrofuran-3-yl)oxy)isoquinolin-1-amine]: the EC50 was below 1 µM.

As to `C#CC1(COc2ccc3c(Nc4ccc(Cl)nc4)nccc3c2)CC1` [Example 151, N-(6-chloropyridin-3-yl)-6-((1-ethynylcyclopropyl)methoxy)isoquinolin-1-amine], the EC50 is below 1 µM.

In the case of `C[C@H](Oc1ccc2c(Nc3ccc(Cl)nc3)nccc2c1)c1ccncc1` [Example 237, (S)—N-(6-chloropyridin-3-yl)-6-(1-(pyridin-4-yl)ethoxy)isoquinolin-1-amine], the EC50 is below 1 µM.

Take `Cc1ncc(Nc2nccc3cc(OCC(F)F)ccc23)cn1` [Example 26, 6-(2,2-difluoroethoxy)-N-(2-methylpyrimidin-5-yl)isoquinolin-1-amine]: the EC50 lay within 1 to 10 µM.

With `Clc1ccc(Nc2nccc3cc(OCCn4ccnc4)ccc23)cn1` [Example 74, 6-(2-(1H-imidazol-1-yl)ethoxy)-N-(6-chloropyridin-3-yl)isoquinolin-1-amine], the EC50 was at least 30 µM.

As for `OCC(F)(F)COc1ccc2c(Nc3ccc(Cl)nc3)nccc2c1` [Example 155, 3-((1-((6-chloropyridin-3-yl)amino)isoquinolin-6-yl)oxy)-2,2-difluoropropan-1-ol], the EC50 was in the range of 1 to 10 µM.

As for `Cc1ncc(Nc2nccc3cc(OCc4ccn(C)n4)ccc23)cn1` [Example 206, 6-((1-methyl-1H-pyrazol-3-yl)methoxy)-N-(2-methylpyrimidin-5-yl)isoquinolin-1-amine], the EC50 was 1 to 10 µM.

Values taken from patent US20240101531A1, “PYRIDINAMINE DERIVATIVES AND THEIR USE AS POTASSIUM CHANNEL MODULATORS” (Xenon Pharmaceuticals Inc., priority 2022, published 2024).
